Consider 19 compounds from US20230107216A1, “PANTETHEINE DERIVATIVES AND USES THEREOF” (Comet Therapeutics, Inc., priority 2018, published 2023).

Test [1] deals with primary fibroblasts (healthy controls and PA, MMA, BCKDK, PDH, VLCAD, LS, PC, GA, VLCFA, KSS, FXN, HD). Nature of the test: Measurement of ROS (H2DCFDA) in primary fibroblasts. It counts as cell-based, human. The following applies: procedure Example 812; for inhibition at 10 µM: Homo sapiens. The method in brief: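 Patient and healthy-control primary fibroblasts switched to supplemented DMEM 24 h before assay, then treated with compound (10 μM) plus H2DCFDA (22 μM) for 2 h (PA, MMA lines) or 24 h (other lines). Kinetic fluorescence at 492/527 nm over 60 min; only live cells analysed.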

Test [2] concerns monocyte-derived M1 macrophages. As to the kind of experiment: M1 differentiation assay (macrophage TNFα, IL6, IL10 ELISA, FACS). The format is cell-based, human. The method in brief:
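CD14+ human blood monocytes (100,000) differentiated 6 days with 10 ng/ml GM-CSF plus compound at 10 or 50 μM, refreshed days 2 and 4. Matured 24 h with GM-CSF, IFNγ, LPS plus compound. Supernatant TNFα, IL6, IL10 by ELISA; FACS M1 phenotype CD86+CD68+CD163−.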
A general note: An ELISA detects its analyte on a solid surface through an enzyme-linked reagent.

Where [3] appears, read: Fibroblast, BCKD GM00649, Assay Condition C, read-out: Decreased ROS by at least 10%.
Setting [4] is: Fibroblast, BCKD GM00649, Assay Condition C, read-out: Decreased ROS by at least 30%.
Where [5] appears, read: Homo sapiens, Macrophage, 10 uM, read-out: % decrease in Macrophage TNFα Secretion.
[6] abbreviates: Fibroblast, VLCFA GM13262, Assay Condition C, read-out: Decreased ROS by at least 30%.
[7] abbreviates: Homo sapiens, Macrophage, 50 uM, read-out: % decrease in Macrophage IL-6 Secretion.
[8] abbreviates: Fibroblast, PDH GM01503, Assay Condition C, read-out: Decreased ROS by at least 10%.
Setting [9] is: Fibroblast, PDH GM01503, Assay Condition C, read-out: Decreased ROS by at least 30%.
[10] abbreviates: FXN GM04078, Assay Condition C, read-out: Decreased ROS by at least 10%.
Setting [11] is: FXN GM04078, Assay Condition C, read-out: Decreased ROS by at least 30%.
The mark [12] stands for this setting: Homo sapiens, Macrophage, 10 uM, read-out: % Increase in IL-10 Secretion.
Where [13] appears, read: Homo sapiens, Macrophage, 10 uM, read-out: % decrease in Macrophage IL-6 Secretion.
The mark [14] stands for this setting: Fibroblast, VLCAD GM17475, Assay Condition C, read-out: Decreased ROS by at least 10%.
Setting [15] is: Fibroblast, NPC1 GM22879, Assay Condition C, read-out: Decreased ROS by at least 30%.
[16] abbreviates: Fibroblast, NPC1 GM22879, Assay Condition C, read-out: Decreased ROS by at least 10%.
Setting [17] is: Fibroblast, BCKD GM00612, Assay Condition A, read-out: Decreased ROS by at least 10%.

The structures appear in SMILES notation. Where two headings read alike, the source gives them in different places.

In the case of `COC(=O)CCC(=O)SCCNC(=O)CCNC(=O)[C@H](O)C(C)(C)CO` [Compound 4, Methyl (R)-4-((2-(3-(2,4-dihydroxy-3,3-dimethylbutanamido)propanamido)ethyl)thio)-4-oxobutanoate], the values for the inhibition at 10 µM in test [1] (setting [3]), in test [1] (setting [4]) and in test [2] (setting [5]) were ≥ 10%, ≥ 30% and ≥ 30%, respectively.
Take `CC(C)=CC(=O)SCCNC(=O)CCNC(=O)[C@H](O)C(C)(C)CO` [Compound 37, S-2-{3-[(R)-2,4-dihydroxy-3,3-dimethylbutyrylamino]propionylamino}ethyl 3-methyl-2-butenethioate]: the inhibition at 10 µM in test [1] (Fibroblast, VLCFA GM13262, Assay Condition C, read-out: Decreased ROS by at least 10%) is ≥ 10%; in test [1] (setting [6]), ≥ 30%; in test [2] (setting [5]), ≥ 30%. For the same compound, the “% decrease in IL-10 Secretion” value in test [2] (10 uM) is given as ≥30%. In addition, in test [2] (setting [7]), the inhibition at 50 µM was ≥ 30%.
On to `C[C@@H](O)CC(=O)SCCNC(=O)CCNC(=O)[C@H](O)C(C)(C)CO` [Compound 38, S-2-{3-[(R)-2,4-dihydroxy-3,3-dimethylbutyrylamino]propionylamino} ethyl (R)-3-hydroxybutanethioate], for which the inhibition at 10 µM in test [1] (setting [8]) was ≥ 10%; in test [1] (setting [9]), ≥ 30%; in test [1] (setting [10]) it was ≥ 10%; in test [1] (setting [11]) it was ≥ 30%; in test [2] (setting [13]), ≥ 30%; in test [2] (setting [5]), ≥ 30%. Also, the “% Increase in Live Macrophage Cells” value in test [2] (50 uM) is ≥20%. In test [2] (setting [12]), the activation at 10 µM is ≥ 30%.
Consider `CC(C)(CO)[C@@H](O)C(=O)NCCC(=O)NCCSC(=O)CC(O)C(=O)O` (stereo partly drawn) [Compound 39], for which the inhibition at 10 µM in test [1] (setting [14]) was ≥ 10%; in test [2] (setting [13]), ≥ 30%; in test [2] (setting [5]) it was ≥ 30%. Further, the “% Increase in Live Macrophage Cells” value in test [2] (10 uM) is given as ≥20%. In test [2] (setting [12]), the activation at 10 µM was ≥ 30%.
On to `C[C@@H](O)CC(=O)CC(=O)SCCNC(=O)CCNC(=O)[C@H](O)C(C)(C)CO` [Compound 42, (2R)-2,4-dihydroxy-N-[2-[(2-[[(5R)-5-hydroxy-3-oxohexanoyl]sulfanyl]ethyl)carbamoyl]ethyl]-3,3-dimethylbutanamide], for which the inhibition at 10 µM in test [1] (setting [15]) was ≥ 30%; in test [1] (setting [8]) it was ≥ 10%.
Regarding `COC(=O)/C=C/C(=O)SCCNC(=O)CCNC(=O)[C@H](O)C(C)(C)COP(=O)(O)O` [Compound 73, methyl (R,E)-4-((2-(3-(2-hydroxy-3,3-dimethyl-4-(phosphonooxy)butanamido)propanamido)ethyl)thio)-4-oxobut-2-enoate], the inhibition at 10 µM in test [1] (setting [16]) was ≥ 10%; in test [2] (setting [5]) it was ≥ 30%. Further, the inhibition at 50 µM in test [2] (setting [7]) was ≥ 30%.
In the case of `C/C=C/C(=O)SCCNC(=O)CCNC(=O)[C@H](O)C(C)(C)COP(=O)(O)O` [Compound 82, (R)—S-(2-(3-(2-hydroxy-3,3-dimethyl-4-(phosphonooxy)butanamido)propanamido)ethyl) (E)-but-2-enethioate], the inhibition at 10 µM in test [2] (setting [5]) was ≥ 30%. Also, in test [2] (setting [7]), the inhibition at 50 µM is ≥ 30%.
Turning to `COC(=O)CCC(=O)SCCNC(=O)CCNC(=O)[C@H](O)C(C)(C)COC(C)=O` [Compound 138], the results for the inhibition at 10 µM in test [1] (setting [16]), in test [1] (setting [15]) and in test [1] (setting [10]) were ≥ 10%, ≥ 30% and ≥ 10%, respectively.
For the compound `CC(O)CC(O)CC(=O)SCCNC(=O)CCNC(=O)[C@H](O)C(C)(C)CO` (stereo partly drawn) [Compound 400], the inhibition at 10 µM in test [1] (setting [3]) was ≥ 10%; in test [1] (setting [4]), ≥ 30%; in test [1] (setting [10]), ≥ 10%; in test [1] (setting [11]), ≥ 30%. Besides, in test [2] (setting [12]), the activation at 10 µM was ≥ 30%. Further, the inhibition at 50 µM in test [2] (Homo sapiens, Macrophage, 50 uM, read-out: % decrease in Macrophage TNFα Secretion) is ≥ 30%.
With `CC(O)CC(O)CC(O)CC(=O)SCCNC(=O)CCNC(=O)[C@H](O)C(C)(C)CO` (stereo partly drawn) [Compound 401], the inhibition at 10 µM in test [1] (setting [14]) is ≥ 10%; in test [1] (Fibroblast, VLCAD GM17475, Assay Condition C, read-out: Decreased ROS by at least 30%) it was ≥ 30%; in test [2] (setting [5]), ≥ 30%. Further, the “% decrease in Live Macrophage Cells” value in test [2] (50 uM) was ≥20%.
On to `COC(=O)C(C)C(=O)SCCNC(=O)CCNC(=O)[C@H](O)C(C)(C)CO` (stereo partly drawn) [Compound 405], for which the inhibition at 10 µM is ≥ 10% in test [1] (setting [3]), ≥ 30% in test [1] (setting [4]), ≥ 30% in test [2] (setting [13]) and ≥ 30% in test [2] (setting [5]). The “% decrease in IL-10 Secretion” value in test [2] (50 uM) is given as ≥30%. Further, the “% decrease in Live Macrophage Cells” value in test [2] (50 uM) is listed as ≥20%. The activation at 10 µM in test [2] (setting [12]) is ≥ 30%.
Regarding `CC(=O)SCCNC(=O)CCNC(=O)[C@H](O)C(C)(C)COC(=O)CN` [Compound 560, (3R)-3-[(2-[[2-(acetylsulfanyl)ethyl]carbamoyl]ethyl)carbamoyl]-3-hydroxy-2,2-dimethylpropyl 2-aminoacetate], the inhibition at 10 µM in test [1] (setting [10]) was ≥ 10%.
For the compound `CC(C)(CO)[C@@H](O)C(=O)NCCC(=O)NCCSC(=O)C1CCC(=O)N1` (stereo partly drawn) [Compound 1227, S-2-{3-[(R)-2,4-dihydroxy-3,3-dimethylbutyrylamino]propionylamino}ethyl 5-oxo-2-pyrrolidinecarbothioate], the activation at 10 µM in test [2] (setting [12]) was ≥ 30%. The inhibition at 10 µM in test [2] (setting [5]) was ≥ 30%.
As to `CC(C)C(=O)CC(=O)SCCNC(=O)CCNC(=O)[C@H](O)C(C)(C)CO` [Compound 1239, (R)—S-(2-(3-(2,4-dihydroxy-3,3-dimethylbutanamido)propanamido)ethyl) 4-methyl-3-oxopentanethioate], the inhibition at 10 µM is ≥ 10% in test [1] (setting [17]); ≥ 30% in test [1] (setting [6]); ≥ 10% in test [1] (setting [10]); ≥ 30% in test [1] (setting [11]); ≥ 30% in test [2] (setting [13]); ≥ 30% in test [2] (setting [5]). Also, the “% Increase in Live Macrophage Cells” value in test [2] (10 uM) is ≥20%. Besides, the activation at 10 µM in test [2] (setting [12]) is ≥ 30%.
Consider `CCC(C)C(=O)CC(=O)SCCNC(=O)CCNC(=O)[C@H](O)C(C)(C)CO` (stereo partly drawn) [Compound 1240, S-(2-(3-((R)-2,4-dihydroxy-3,3-dimethylbutanamido)propanamido)ethyl) 4-methyl-3-oxohexanethioate], for which the inhibition at 10 µM in test [1] (setting [17]) was ≥ 10%; in test [1] (setting [6]), ≥ 30%; in test [1] (setting [10]) it was ≥ 10%; in test [1] (setting [11]), ≥ 30%; in test [2] (setting [13]), ≥ 30%; in test [2] (setting [5]), ≥ 30%. In test [2] (10 uM), the “% Increase in Live Macrophage Cells” value is given as ≥20%. In addition, in test [2] (Homo sapiens, Macrophage, 50 uM, read-out: % Increase in IL-10 Secretion), the activation at 50 µM was ≥ 30%.
With `CC(=O)SCCNC(=O)CCNC(=O)[C@H](O)C(C)(C)COC(=O)CCC(=O)O` [Compound 1242, (R)-12-hydroxy-13,13-dimethyl-2,7,11,16-tetraoxo-15-oxa-3-thia-6,10-diazanonadecan-19-oic acid], the “% decrease in Live Macrophage Cells” value in test [2] (10 uM) is given as ≥20%. In addition, the activation at 10 µM in test [2] (setting [12]) was ≥ 30%. For the same compound, the inhibition at 10 µM in test [2] (setting [13]) and in test [2] (setting [5]) was ≥ 30% throughout.
With `C[C@H](CC(=O)SCCNC(=O)CCNC(=O)[C@H](O)C(C)(C)CO)OC(=O)CCC(=O)O` [Compound 1243, 4-{[(2R)-4-[(2-{3-[(2R)-2,4-dihydroxy-3,3-dimethylbutanamido]propanamido}ethyl)sulfanyl]-4-oxobutan-2-yl]oxy}-4-oxobutanoic acid], the inhibition at 10 µM was ≥ 10% in test [1] (setting [3]); ≥ 30% in test [1] (setting [4]); ≥ 10% in test [1] (setting [10]); ≥ 30% in test [1] (setting [11]); ≥ 30% in test [2] (setting [5]).
`CC(C)(CO)[C@@H](O)C(=O)NCCC(=O)NCCSC(=O)CCCO` [Compound 1304, (2R)-2,4-dihydroxy-N-[2-([2-[(4-hydroxybutanoyl)sulfanyl]ethyl]carbamoyl)ethyl]-3,3-dimethylbutanamide]: the inhibition at 10 µM is ≥ 10% in test [1] (setting [8]) and ≥ 30% in test [1] (setting [9]).
With `C[C@H](O)CC(=O)CC(=O)SCCNC(=O)CCNC(=O)[C@H](O)C(C)(C)CO` [Compound 1306, (2R)-2,4-dihydroxy-N-[2-[(2-[[(5S)-5-hydroxy-3-oxohexanoyl]sulfanyl]ethyl)carbamoyl]ethyl]-3,3-dimethylbutanamide], the “Decreased ROS by at least 30%” value is ≥ 30% in test [1] (Healthy GM05659, Assay Condition A) and ≥ 30% in test [1] (Healthy GM23974, Assay Condition A). The inhibition at 10 µM in test [1] (setting [8]) is ≥ 10%; in test [1] (setting [9]), ≥ 30%; in test [1] (setting [10]) it was ≥ 10%; in test [1] (setting [11]), ≥ 30%.
